Laboratory results as given in PMC11284788, “NN1213 – A Potent, Long-Acting, and Selective Analog of Human Amylin” (Journal of Medicinal Chemistry, 2024).
Where two headings read alike, the source gives them in different places. Numbered stars: 1 amine (or outer) side, 2 acyl side, 3 side chain; on linkers, the order of the positions; unused ones are H or OH. Bridge positions count the residues as written; N and C are the ends. Peptide text beside a SMILES is read from it. * marks the point of attachment. C20 diacid = O=C(O)CCCCCCCCCCCCCCCCCCC(=O)*; γGlu = O=C(O)[C@H](CCC(=O)[*:2])N[*:1]; AEEA = NCCOCCOCC(=O)O

How the values were obtained:
[1] = HMWP content by size-exclusion chromatography; format: physicochemical; conditions: analogs 10–21 (pH 4.0 series); covalent dimers and polymers prior to fibril formation testing, SEC, % of total absorbance area at 215 nm
Procedure, shortened: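 HMWP percentage is the covalent dimer/polymer peak area relative to total absorbance area, with extinction coefficients taken as equal to the main peak. Isocratic size-exclusion elution used 50% (v/v) 2-propanol containing 0.5 M NaCl and phosphate buffer; measured on analogs prior to fibril assays.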

hAMY3R = target: T1, hAMY3R (Homo sapiens, UniProt O60896+P30988); assay: scintillation proximity binding assay, hAMY3R membranes; parameters: expressed in transfected cells; host or cells: BHK tk-ts 13, transient co-transfection; membranes for the SPA, whole cells for the species-specific assays; conditions: for ratio hCTR/hAMY3R: ratio of binding IC50 values
T1 sequence (P30988 25-474): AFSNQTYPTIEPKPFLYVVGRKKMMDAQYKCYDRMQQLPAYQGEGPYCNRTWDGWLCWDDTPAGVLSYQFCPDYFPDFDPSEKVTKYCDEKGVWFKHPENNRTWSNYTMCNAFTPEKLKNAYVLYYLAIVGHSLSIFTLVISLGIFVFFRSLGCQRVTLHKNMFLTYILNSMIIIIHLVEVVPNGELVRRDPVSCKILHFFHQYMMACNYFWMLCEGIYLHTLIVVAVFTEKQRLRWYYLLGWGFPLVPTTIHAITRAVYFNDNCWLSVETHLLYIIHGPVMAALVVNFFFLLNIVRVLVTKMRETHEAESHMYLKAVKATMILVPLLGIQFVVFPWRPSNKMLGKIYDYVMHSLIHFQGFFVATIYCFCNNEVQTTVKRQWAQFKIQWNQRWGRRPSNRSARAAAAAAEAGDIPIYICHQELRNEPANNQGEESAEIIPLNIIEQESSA
T1 sequence (O60896 24-148 partner): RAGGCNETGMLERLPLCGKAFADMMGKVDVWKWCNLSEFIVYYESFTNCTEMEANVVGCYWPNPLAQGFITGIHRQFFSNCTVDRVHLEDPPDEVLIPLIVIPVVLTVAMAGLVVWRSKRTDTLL
Protocol: The apparent binding affinities were determined using a scintillation proximity assay with beads from PerkinElmer and cell membranes containing the AMY3R or CTRs. […] Membranes were harvested and membranes were prepared and kept at −80 °C until use. The assay was performed in a 384-well Optiplate (PerkinElmer). Membranes were mixed with scintillation proximity assay beads in a 1:1 ratio. […] Samples were analyzed on a TopCounter (Packard). The IC50 values were calculated using GraphPad Prism. See Supporting Information S7: SAR Screening Assay Methods (Binding Assays (Human and Rat)) for more information.
Binding Assays (Human and Rat). Brief descriptions of the methods used to determine binding affinities for SAR analysis are described below. Curves and IC50 values were plotted and calculated in GraphPad Prism using nonlinear regression (one site binding competition analysis), with pIC50 values […]
values were used to calculate the binding affinity ratios in order to express the selectivity of compounds for the AMY3R versus the CTR.
CTR Binding Assay. The binding assay was performed using scintillation proximity assay (SPA) beads (RPNQ0001) from PerkinElmer and cell membranes containing either the hCTR or rCTR. BHK […]
(§1) Membranes were prepared in the following way: the cells were rinsed with PBS and incubated with Versene for approximately 5 min before harvesting. The cells were flushed with PBS and the cell-suspension was centrifuged for 5 min at 1000 rpm. Cells were homogenized (Ultra Turrax) in a buffer […]
containing 20 mM Na-HEPES and 0.1 mM EDTA (pH 7.4, buffer 2). The resulting pellet was re-suspended in buffer 2 and protein concentration was measured (BCA protein assay, Pierce). The homogenate was kept cold during the whole procedure. The membranes were stored at –80 °C until […]
The binding assay was performed in a 384-well Optiplate (PerkinElmer) in a total volume of 40 μL.
Membranes were mixed with SPA beads in a 1:1 ratio. […]
mg/well. Test compounds were dissolved in DMSO and further diluted in assay buffer (50 mM HEPES, pH 7.4, 1 mM CaCl2, 5 mM MgCl2, 0.1% ovalbumin, and 0.02% Tween-20).
Calcitonin (NEX422 PerkinElmer) was dissolved in assay buffer and added to the Optiplate at a final […]
prior to centrifugation (1500 rpm, 10 min). Samples were analyzed on TopCounter (Packard).
AMY3R Binding Assay. The binding assay was performed using SPA beads (RPNQ0001) from PerkinElmer and cell membranes containing either the hAMY3R or rAMY3R. BHK tk-ts 13 cells were […]
as §1, with “and cultured as described above. Membranes” for “Membranes”, “buffer containing 20 mM Na-HEPES and 10 mM EDTA (pH 7.4), and” for “buffer”
The resulting pellet was re-suspended, homogenized, and
7.4, buffer 2). The resulting pellet was re-suspended in buffer 2 and protein concentration was measured (BCA protein assay, Pierce). The homogenate was kept cold during the whole procedure.
The membranes were stored at –80 °C until use.
Membranes were mixed with SPA beads in a 1:1 ratio. The final concentration of SPA beads was 0.05 mg/well. Test compounds were dissolved in DMSO and further diluted in assay buffer (50 mM […]
rAMY (NEX448 PerkinElmer) was dissolved in assay buffer and added to the Optiplate at a final

[2] = SPA binding assay, Tables S13 and S15, read-out: hAMY3R pIC50 (converted)
[3] = SPA, BHK cell membranes, 125I-rat amylin, 120 min 25 °C, read-out: hAMY3R IC50

Row | HMWP [1] [%] | ratio hCTR/hAMY3R (hAMY3R) | IC50 (hAMY3R; [2]) [pM] | IC50 (hAMY3R; [3]) [pM] | SMILES
1 | 3.5 | 19 | – | – | CC[C@H](C)[C@H](NC(=O)[C@H](C)NC(=O)CNC(=O)[C@H](Cc1ccccc1)NC(=O)[C@H](CC(N)=O)NC(=O)[C@@H]1CCCN1C(=O)[C@H](CO)NC(=O)[C@H](CO)NC(=O)[C@H](Cc1c[nH]cn1)NC(=O)[C@H](CCCNC(=N)N)NC(=O)[C@H](CC(C)C)NC(=O)[C@H](Cc1ccccc1)NC(=O)[C@H](CC(N)=O)NC(=O)[C@H](C)NC(=O)[C@H](CC(C)C)NC(=O)[C@H](CCCNC(=N)N)NC(=O)[C@H](CCC(N)=O)NC(=O)[C@@H](NC(=O)[C@H](C)NC(=O)[C@@H]1CSSC[C@H](NC(=O)[C@H](CCCCN)NC(=O)COCCOCCNC(=O)CC[C@H](NC(=O)CCCCCCCCCCCCCCCCCCC(=O)O)C(=O)O)C(=O)N[C@@H](CC(N)=O)C(=O)N[C@@H]([C@@H](C)O)C(=O)N[C@@H](C)C(=O)N[C@@H]([C@@H](C)O)C(=O)N1)[C@@H](C)O)C(=O)N1CCC[C@H]1C(=O)N[C@@H](CO)C(=O)N[C@@H](CO)C(=O)N[C@H](C(=O)N[C@@H](CC(N)=O)C(=O)N[C@H](C(=O)NCC(=O)N[C@@H](CO)C(=O)N[C@@H](Cc1c[nH]cn1)C(=O)N[C@H](C(=O)N[C@@H](Cc1ccc(O)cc1)C(N)=O)[C@@H](C)O)C(C)C)[C@@H](C)O [Peptide 18] ({C20 diacid-γGlu-AEEA}-KCNTATCATQRLANFLRHSSPNFGAIPSSTNVGSHTY-NH2; disulfide 2-7; N-terminus assumed)
2 | 2.6 | 20 | 589 | 589 | CC[C@H](C)[C@H](NC(=O)[C@H](C)NC(=O)CNC(=O)[C@H](Cc1ccccc1)NC(=O)[C@H](CC(N)=O)NC(=O)[C@@H]1CCCN1C(=O)[C@H](CO)NC(=O)[C@H](CO)NC(=O)[C@H](Cc1c[nH]cn1)NC(=O)[C@H](CCCNC(=N)N)NC(=O)[C@H](CC(C)C)NC(=O)[C@H](Cc1ccccc1)NC(=O)[C@H](CC(N)=O)NC(=O)[C@H](C)NC(=O)[C@H](CC(C)C)NC(=O)[C@H](CCCNC(=N)N)NC(=O)[C@H](CCC(N)=O)NC(=O)[C@@H](NC(=O)[C@H](C)NC(=O)[C@@H]1CSSC[C@H](NC(=O)[C@H](CCCCN)NC(=O)CC[C@H](NC(=O)CCCCCCCCCCCCCCCCCCC(=O)O)C(=O)O)C(=O)N[C@@H](CC(N)=O)C(=O)N[C@@H]([C@@H](C)O)C(=O)N[C@@H](C)C(=O)N[C@@H]([C@@H](C)O)C(=O)N1)[C@@H](C)O)C(=O)N1CCC[C@H]1C(=O)N[C@@H](CO)C(=O)N[C@@H](CO)C(=O)N[C@H](C(=O)N1CCC[C@H]1C(=O)N[C@H](C(=O)NCC(=O)N[C@@H](CO)C(=O)N[C@@H](CCC(=O)O)C(=O)N[C@H](C(=O)N[C@@H](Cc1ccc(O)cc1)C(N)=O)[C@@H](C)O)C(C)C)[C@@H](C)O [Peptide 11] ({C20 diacid-γGlu}-KCNTATCATQRLANFLRHSSPNFGAIPSSTPVGSETY-NH2; disulfide 2-7)
3 | 1.7 | 29 | 479 | 484 | CC[C@H](C)[C@H](NC(=O)[C@H](C)NC(=O)CNC(=O)[C@H](Cc1ccccc1)NC(=O)[C@H](CC(N)=O)NC(=O)[C@@H]1CCCN1C(=O)[C@H](CO)NC(=O)[C@H](CO)NC(=O)[C@H](Cc1c[nH]cn1)NC(=O)[C@H](CCCNC(=N)N)NC(=O)[C@H](CC(C)C)NC(=O)[C@H](Cc1ccccc1)NC(=O)[C@H](CC(N)=O)NC(=O)[C@H](C)NC(=O)[C@H](CC(C)C)NC(=O)[C@H](CCCNC(=N)N)NC(=O)[C@H](CCC(N)=O)NC(=O)[C@@H](NC(=O)[C@H](C)NC(=O)[C@@H]1CSSC[C@H](NC(=O)[C@H](CCCCN)NC(=O)CC[C@H](NC(=O)CCCCCCCCCCCCCCCCCCC(=O)O)C(=O)O)C(=O)N[C@@H](CC(N)=O)C(=O)N[C@@H]([C@@H](C)O)C(=O)N[C@@H](C)C(=O)N[C@@H]([C@@H](C)O)C(=O)N1)[C@@H](C)O)C(=O)N1CCC[C@H]1C(=O)N[C@@H](CO)C(=O)N[C@@H](CO)C(=O)N[C@H](C(=O)N[C@@H](CC(N)=O)C(=O)N[C@H](C(=O)NCC(=O)N[C@@H](Cc1c[nH]cn1)C(=O)N[C@@H](CC(N)=O)C(=O)N[C@H](C(=O)N[C@@H](Cc1ccc(O)cc1)C(N)=O)[C@@H](C)O)C(C)C)[C@@H](C)O [Peptide 17]
